From ChEMBL document CHEMBL1201862, “PubChem BioAssay data set” (2004) come the findings set out here.

Molecules are shown by their SMILES.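 A five-concentration, 48-hour dose response in 96-well plates underlies each endpoint, interpolated linearly between surrounding concentrations. GI50 = concentration required for 50% inhibition of growth.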 Activity calls are given as the source filed them. Cut-off read from the data, not from the text of the source: active = GI50 up to about 1.1 µM and inactive = higher.

Among the test systems are SNB-19; A498; OVCAR-4; EKVX; SK-OV-3; M14; COLO 205; IGROV-1; SF-539; 786-0; SK-MEL-5; HOP-92; U-251; HL-60; NCI-H226; CAKI-1; NCI-H522.
Holding throughout (assay): DTP human tumour cell line panel, 48 h

`Cc1cc(C)n(-c2ccnc3cc(Cl)ccc23)n1`: the GI50 in the assay with SNB-19, in the assay on A498, in the assay with OVCAR-4, in the assay with EKVX, with SK-OV-3 and with M14 was > 100 µM (inactive) each time. Besides, the GI50 in the assay with COLO 205, in the assay on IGROV-1, with SF-539, with 786-0, in the assay on SK-MEL-5 and in the assay on HOP-92 was > 100 µM (inactive) throughout. In addition, the GI50 in the assay on U-251, in the assay with HL-60 and in the assay on NCI-H226 was > 100 µM (inactive) throughout.

For `Cc1csc(=S)n1OC(=O)NC1CCCCC1`, the GI50 is > 100 µM (inactive) in the assay on SNB-19; > 92.5 µM (inactive) in the assay on A498; > 100 µM (inactive) in the assay on EKVX; > 100 µM (inactive) with SK-OV-3; 40.9 µM (inactive) in the assay on M14; > 100 µM (inactive) with IGROV-1. The GI50 is > 100 µM (inactive) in the assay on SF-539; 19 µM (inactive) in the assay with 786-0; > 51.4 µM (inactive) in the assay with SK-MEL-5; 7.89 µM (inactive) in the assay with HOP-92; 63.8 µM (inactive) in the assay on U-251; > 100 µM (inactive) in the assay on CAKI-1. The GI50 in the assay with NCI-H522 was 18.1 µM (inactive); in the assay with HL-60, 17.9 µM (inactive); in the assay on NCI-H226, > 100 µM (inactive).

With `COC1(OC)CC2C(=O)N(Cc3ccccc3)C1CC2S(=O)(=O)c1ccccc1` (stereo unspecified), the GI50 in the assay on SNB-19, with EKVX, in the assay on SK-OV-3, in the assay with M14, in the assay with COLO 205 and in the assay on IGROV-1 was > 100 µM (inactive) in each case. Further, the GI50 with SF-539, in the assay on 786-0, with SK-MEL-5, in the assay on U-251, with NCI-H522 and with HL-60 was > 100 µM (inactive) throughout. For the same compound, the GI50 in the assay on NCI-H226 was > 100 µM (inactive).

On to `CCNC1C2(CCCCC2)NC(=O)C12CCCCC2` (stereo unspecified), for which the GI50 with A498, in the assay with OVCAR-4, in the assay on EKVX, in the assay with SK-OV-3, in the assay on M14 and in the assay with IGROV-1 was > 100 µM (inactive) each time. The GI50 in the assay with SF-539, in the assay with 786-0, with SK-MEL-5, in the assay on U-251, in the assay with CAKI-1 and with HL-60 was > 100 µM (inactive) each time. For the same compound, the GI50 in the assay with NCI-H226 was > 100 µM (inactive).

Consider `O=C(NCCNCCO)N/N=C/c1ccccc1`, for which the GI50 with SNB-19, in the assay on OVCAR-4, with SK-OV-3, in the assay on M14, in the assay on IGROV-1 and with SF-539 was > 100 µM (inactive) in each case. Also, the GI50 was > 100 µM (inactive) in the assay on 786-0; > 100 µM (inactive) in the assay on SK-MEL-5; > 100 µM (inactive) in the assay with U-251; > 100 µM (inactive) in the assay with NCI-H522; 79.3 µM (inactive) in the assay with HL-60; > 100 µM (inactive) in the assay on NCI-H226.

`CCOC(=O)C(Cc1c[nH]c2cc([N+](=O)[O-])ccc12)NS(=O)(=O)c1ccc2ccccc2c1` (stereo unspecified): the GI50 is 37.9 µM (inactive) with SNB-19; 29.2 µM (inactive) in the assay on A498; 10.9 µM (inactive) in the assay with OVCAR-4; 29.1 µM (inactive) with EKVX; 23.4 µM (inactive) in the assay on SK-OV-3; 19 µM (inactive) in the assay on M14. For the same compound, the GI50 in the assay with COLO 205 was 18 µM (inactive); with IGROV-1 it was 21.4 µM (inactive); in the assay on SF-539, 17.5 µM (inactive); in the assay with 786-0, 26.5 µM (inactive); in the assay with HOP-92, 19.9 µM (inactive); in the assay on U-251 it was 17.6 µM (inactive). In addition, the GI50 with NCI-H522 was 16.3 µM (inactive); in the assay on HL-60, 22.8 µM (inactive); in the assay on NCI-H226, 16.7 µM (inactive).

`Cn1cc(NC(=O)c2cc(NC(=O)CCCCCCCCC(=O)Nc3cc(C(=O)Nc4cc(C(=O)NCCC(N)N)n(C)c4)n(C)c3)cn2C)cc1C(=O)NCCC(=N)N`: the GI50 is 21.4 µM (inactive) in the assay with SNB-19; 34.7 µM (inactive) in the assay with OVCAR-4; 20.3 µM (inactive) in the assay with EKVX; 27.9 µM (inactive) with SK-OV-3; 22.3 µM (inactive) with M14; 20 µM (inactive) with COLO 205. Also, the GI50 in the assay with IGROV-1 is 24.5 µM (inactive); in the assay with SF-539, 22.6 µM (inactive); with 786-0, 21.9 µM (inactive); with SK-MEL-5 it was 4.74 µM (inactive); with HOP-92, 36.6 µM (inactive); with U-251 it was 17 µM (inactive). For the same compound, the GI50 is 22.5 µM (inactive) in the assay on CAKI-1, 8.99 µM (inactive) in the assay with NCI-H522 and 25.8 µM (inactive) in the assay with NCI-H226.

Turning to `O=c1cccccc1NCCNc1cccccc1=O`, the GI50 in the assay on SNB-19, with OVCAR-4, with EKVX, in the assay on SK-OV-3, with M14 and with COLO 205 was > 100 µM (inactive) each time. For the same compound, the GI50 in the assay with IGROV-1, in the assay with SF-539, with 786-0, with HOP-92, with U-251 and in the assay on CAKI-1 was > 100 µM (inactive) each time. The GI50 with NCI-H522, in the assay with HL-60 and in the assay on NCI-H226 was > 100 µM (inactive) in each case.

Consider `O=C(O)C1C2CCC(O2)C1C(=O)N1CCCCC1` (stereo unspecified), for which the GI50 was 15.5 µM (inactive) in the assay with SNB-19; 1.28 µM (inactive) in the assay on A498; 10.8 µM (inactive) with OVCAR-4; 4.02 µM (inactive) in the assay on EKVX; 15.7 µM (inactive) in the assay on SK-OV-3; 12.7 µM (inactive) in the assay on M14. Also, the GI50 in the assay with COLO 205 was 1.95 µM (inactive); in the assay on IGROV-1, 30.5 µM (inactive); in the assay on SF-539, 9.4 µM (inactive); in the assay with 786-0 it was 4.16 µM (inactive); in the assay with SK-MEL-5, 13.8 µM (inactive); in the assay with HOP-92 it was 2.38 µM (inactive). For the same compound, the GI50 is 4.2 µM (inactive) in the assay with U-251, 4.88 µM (inactive) with NCI-H522 and 5.09 µM (inactive) with NCI-H226.

`OCc1ccc(C2CC(c3ccco3)=NN2c2ccccc2)o1` (stereo unspecified): the GI50 with SNB-19, with OVCAR-4, with EKVX, with M14, with COLO 205 and with IGROV-1 was > 100 µM (inactive) in each case. For the same compound, the GI50 in the assay with SF-539, in the assay on 786-0, with SK-MEL-5, with U-251, with NCI-H522 and in the assay with HL-60 was > 100 µM (inactive) each time. The GI50 with NCI-H226 was > 100 µM (inactive).

With `COc1cc2ccc3c4cc(OC)c(OC(C)C)cc4cnc3c2cc1OC`, the GI50 in the assay on SNB-19, in the assay with OVCAR-4, in the assay with EKVX, in the assay with SK-OV-3, in the assay with M14 and in the assay with COLO 205 was > 100 µM (inactive) in each case. Further, the GI50 in the assay on IGROV-1, in the assay with SF-539, in the assay with 786-0, with SK-MEL-5, in the assay with HOP-92 and with U-251 was > 100 µM (inactive) throughout. In addition, the GI50 in the assay on CAKI-1, with NCI-H522, with HL-60 and in the assay on NCI-H226 was > 100 µM (inactive) in each case.

Regarding `CO/C(=N\N=C\c1ccc(OC)cc1OC)c1ccncc1`, the GI50 in the assay with SNB-19, in the assay on A498, with SK-OV-3, with COLO 205, with IGROV-1 and in the assay on SF-539 was > 10 µM (inactive) each time. In addition, the GI50 with 786-0, with SK-MEL-5, in the assay on U-251, in the assay on HL-60 and in the assay with NCI-H226 was > 10 µM (inactive) throughout.

Regarding `COC(=O)C1=C(C)N(NC(=O)c2cccc(Cl)c2)C(C)(O)C12CCOC2=O` (stereo unspecified), the GI50 in the assay on SNB-19 is > 100 µM (inactive); with A498, > 100 µM (inactive); in the assay on OVCAR-4, > 100 µM (inactive); with EKVX it was 58.7 µM (inactive); in the assay with SK-OV-3, > 100 µM (inactive); in the assay with M14, > 100 µM (inactive). Besides, the GI50 in the assay with IGROV-1, with SF-539, with 786-0, in the assay on SK-MEL-5, in the assay on U-251 and in the assay on CAKI-1 was > 100 µM (inactive) each time. For the same compound, the GI50 with NCI-H522 and in the assay on NCI-H226 was > 100 µM (inactive) each time.

Turning to `COc1cc(C(C#N)NNC(=O)c2ccccc2O)ccc1O` (stereo unspecified), the GI50 is 5.33 µM (inactive) in the assay with OVCAR-4; 3.18 µM (inactive) with SK-OV-3; 2.79 µM (inactive) in the assay on M14; 28.6 µM (inactive) in the assay with COLO 205; 1.54 µM (inactive) with IGROV-1; 3 µM (inactive) in the assay with SF-539. Further, the GI50 is 2.7 µM (inactive) in the assay with 786-0; 9.95 µM (inactive) in the assay with SK-MEL-5; 2.98 µM (inactive) in the assay on HOP-92; 0.843 µM (active) in the assay on U-251; 5.46 µM (inactive) with CAKI-1; 3.14 µM (inactive) in the assay with NCI-H522. For the same compound, the GI50 in the assay with HL-60 is 2.45 µM (inactive); in the assay on NCI-H226, 2.05 µM (inactive).
